These results are taken from patent US6403656B1, “Use of ppar-γ activators in dermatology” (Galderma Research & Development S.N.C, priority 1997, dated 2002).

In one experiment the target is T1, PPARα (Homo sapiens, UniProt Q07869).
T1 sequence (Q07869 1-468): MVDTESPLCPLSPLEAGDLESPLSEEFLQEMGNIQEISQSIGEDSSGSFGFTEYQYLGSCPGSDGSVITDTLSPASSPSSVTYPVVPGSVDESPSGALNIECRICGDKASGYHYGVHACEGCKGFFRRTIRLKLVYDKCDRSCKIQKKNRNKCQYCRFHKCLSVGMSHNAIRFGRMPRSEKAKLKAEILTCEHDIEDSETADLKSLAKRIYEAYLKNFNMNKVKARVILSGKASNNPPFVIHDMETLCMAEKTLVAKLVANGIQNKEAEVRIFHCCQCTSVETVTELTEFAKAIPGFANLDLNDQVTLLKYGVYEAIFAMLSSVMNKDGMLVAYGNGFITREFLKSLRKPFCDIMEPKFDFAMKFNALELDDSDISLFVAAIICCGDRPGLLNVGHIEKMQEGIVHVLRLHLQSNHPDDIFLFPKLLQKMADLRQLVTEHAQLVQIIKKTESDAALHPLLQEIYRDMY
Put plainly: Transactivation test (luciferase reporter, cotransfected HeLa cells) via PPARα. The following applies: read-out: AC50 (nM) − PPARα; HeLa cells cotransfected with receptor expression vector and PPRE-luciferase reporter, treated for 24 hours.

The test system of the next experiment is keratinocytes. Put plainly: Determination of the keratinocyte proliferation (BrdU incorporation). The note with it: statement in words.
For a further experiment, the target named is T2, PPARγ (Homo sapiens, UniProt P37231).
T2 sequence (P37231 1-505): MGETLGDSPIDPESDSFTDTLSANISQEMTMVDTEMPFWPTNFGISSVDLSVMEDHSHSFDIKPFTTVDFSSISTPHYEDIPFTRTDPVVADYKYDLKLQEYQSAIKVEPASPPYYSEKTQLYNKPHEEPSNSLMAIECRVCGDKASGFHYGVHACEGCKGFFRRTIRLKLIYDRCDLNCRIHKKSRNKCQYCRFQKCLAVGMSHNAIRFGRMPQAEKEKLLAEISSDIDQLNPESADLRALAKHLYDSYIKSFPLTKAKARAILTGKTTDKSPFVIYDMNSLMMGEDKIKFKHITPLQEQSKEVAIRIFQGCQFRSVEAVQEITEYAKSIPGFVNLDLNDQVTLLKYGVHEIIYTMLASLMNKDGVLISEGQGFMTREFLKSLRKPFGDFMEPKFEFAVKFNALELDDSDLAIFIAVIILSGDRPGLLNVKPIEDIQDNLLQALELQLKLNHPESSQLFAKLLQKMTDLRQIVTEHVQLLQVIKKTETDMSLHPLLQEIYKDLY
Description: Transactivation test (luciferase reporter, cotransfected HeLa cells) via PPARγ.

For the compound `CCOC(Cc1ccc(OCCN(C)c2nc3ccccc3o2)cc1)C(=O)O` (single isomer, unassigned; (+)) [Compound C, (+)-3-{4-[2-(benzoxazol-2-ylmethylamino)-ethoxy]phenyl}-2-ethyoxypropionic acid], the AC50 at PPARα came to 4600 nM.
Consider `CCOC(Cc1ccc(OCCN(C)c2nc3ccccc3o2)cc1)C(=O)O` (single isomer, unassigned; (-)) [Compound D, (−)-3-{4-[2-(benzooxazol-2-ylmethylamino)-ethoxy]phenyl}-2-ethyoxypropionic acid], for which the AC50 on PPARα is 1450 nM.
Regarding `CN(CCOc1ccc(CC2SC(=O)NC2=O)cc1)c1ccccn1` (stereo not shown) [Compound A, 5-{4-[2-(methylpyrid-2-ylamino)-ethoxy]benzyl}thiazolidine-2,4-dione], the “inhibitory activity on the proliferation of keratinocytes” value in the experiment on keratinocytes is recorded as “weak, or even no inhibitory activity”.
Consider `CCCCC/C=C/C=C1/C(=O)C=CC1C/C=C\CCCC(=O)O` (stereo not shown) [Compound E, 15-deoxy-Δ^12,14-prostaglandin J2(15-d PGJ2)], for which the “R1 (ratio of AC50 relative to PPAR-γ over AC50 relative to PPARα)” value on PPARγ (AC50 PPARγ / AC50 PPARα) was determined as 0.082. Moreover, the AC50 on PPARγ (read-out: AC50 (nM) − PPARγ, HeLa cells cotransfected with receptor expression vector and PPRE-luciferase reporter, treated for 24 hours) is 180 nM; on PPARα, 2200 nM. Further, in the experiment on keratinocytes, the “inhibitory activity on the proliferation of keratinocytes” value was “weak, or even no inhibitory activity”.
